Data from patent publication EP0214101A2, “Use of iron(III) chelators of the type desferrioxamine-B and desferriferrithiocine in the treatment of malaria” (CIBA-GEIGY AG, priority 1985, dated 1987).
Like-named read-outs stand apart in the source and are kept apart here.

Legend:
[1] = tested on: Plasmodium falciparum T96 Chloroquinresistente Zellinie B; assay: microbe, parasite or virus in culture; format: cell-based; settings: for IC50: Plasmodium falciparum, Erythrocyte, over 2 cycles
Source text: (§1) • a) Durch konventionelles Züchten des Stammes Plasmodium falciparum T96 in einer 2 % (V/V) Suspension von humanen Erythrozyten wird der Grundorganismus-Zellinie A fortgepflanzt, welche eine normale Empfindlichkeit gegenüber Chloroquin aufweist. • b) Zellinie A des obigen Stammes wird unter analogen Standardbedingungen wie unter a) gezüchtet, jedoch mit Zusatz von immer ansteigenden Konzentrationen von Chloroquin, bis eine Chloroquinresistente Zellinie B resultiert, welche weiterhin in Kulturmedien mit einer 500 nM-Konzentration von Chloroquin andauernd normales Wachstum (dieselbe Wachstumsraten wie Zellinie A) aufweist.
(§2) • I. Die Züchtung von Testorganismen erfolgt unter den für Züchtung von Plasmodien üblichen Bedingungen auf einer 2 % Suspension von humanen Erythrozyten, supplementiert mit 50 mg/1 Hypoxanthin und gegebenenfalls unter Zugabe der getesteten Hemmsubstanz in gewünschter Konzentration. Die initiale Parasitämie (= der prozentuelle Anteil der zu Beginn von Plasmodien infizierten Erythrozyten) beträgt 1-2 %. Das Resultat (Hemmwirkung) wird als IC50 ausgewertet, d.h. jene Konzentration des Wirkstoffes, die eine Senkung der finalen Parasitämie um 50 %, d.h. eine 50%ige Hemmung des Wachstums, verursacht. • II. In einer alternativen Versuchsanordnung wird beim Einhalten aller übrigen Bedingungen ohne Zugabe von Hypoxanthin und mit einer initialen Parasitämie von 0,5 % gearbeitet.

[2] = tested on: Bakterien; settings: cited from earlier work
[3] = tested on: Plasmodium falciparum T96 Zellinie A; assay: Growth inhibition of Plasmodium falciparum T96 cell line A (normal chloroquine sensitivity) in culture on human erythrocytes; format: cell-based; settings: Erythrocyte, over 2 cycles
Source text: as §1
as §2, with “In einer alternativen Versuchsanordnung wird beim Einhalten aller übrigen Bedingungen ohne Zugabe von Hypoxanthin und mit einer initialen Parasitämie von 0,5 % gearbeitet.” left out

[4] = tested on: P. vinckei; settings: cited from earlier work
[5] = tested on: Plasmodium falciparum in Kultur an menschlichen Erythrozyten; settings: in vitro culture; cited from earlier work
[6] = very high doses; cited from earlier work

Structure (SMILES) | Vermehrungsfaktor ([1]; Versuchsanordnung I with 500 nM Chloroquin, within 48 hours) | antibakterielle Wirksamkeit in vitro [2] | IC50 ([3]; Versuchsanordnung I) | IC50 ([3]; Versuchsanordnung II) | IC50 ([1]; Versuchsanordnung I, with 400 nM Chloroquin added) | IC50 ([1]; Versuchsanordnung I, without Chloroquin in test medium) | IC50 ([1]; Versuchsanordnung II, without Chloroquin in test medium) | Wirksamkeit gegen Chloroquin-resistenten Stamm im Vergleich zu normal empfindlichem Stamm ([1]; comparison of resistant with sensitive strain grown under the same conditions) | Wachstum des Parasiten ([4]; 0,2 g/kg) | Wachstum des Parasiten ([4]; 1,0 g/kg) | Wachstum / Abtötung in vitro [5] | Toxikologie [6]
CCN(CC)CCCC(C)Nc1ccnc2cc(Cl)ccc12 (stereo not drawn) [Chloroquin, 7-Chlor-4-(4-diethylamino-l-methylbutylamino)chinolin] | 7-9 | – | – | – | – | – | – | – | – | – | – | –
CC1(C(=O)O)CSC(c2ncccc2O)=N1 (stereo not shown) [Desferri-ferrithiocin, 2-(3-Hydroxy-2-pyridyl)-4-methyl-2-thiazolin-4-carbonsäure] | – | gewisse allgemeine antibakterielle Wirksamkeit in vitro | – | – | – | – | – | – | – | – | – | –
CC(=O)N(O)CCCCCNC(=O)CCC(=O)N(O)CCCCCNC(=O)CCC(=O)N(O)CCCCCN [Desferrioxamin B, 6,17,28-Trihydroxy-7,10,18,21,29-pentaoxo-6,11,17,22,28-pentaaza-triacontanylamin] | – | gewisse allgemeine antibakterielle Wirksamkeit in vitro | 17 ± 3 µM | 5 µM | 3 ± 1 µM | 6 ± 1.5 µM | 2 ± 1 µM | um fast eine Grössenordnung wirksamer | das Wachstum des Parasiten deutlich hemmt | ihn vollständig tötet | nicht nur in ihrem Wachstum gehemmt, sondern auch getötet | auch in sehr hohen Dosen toxikologisch einwandfrei
